Source: paper PMC7156612, “Olinciguat, an Oral sGC Stimulator, Exhibits Diverse Pharmacology Across Preclinical Models of Cardiovascular, Metabolic, Renal, and Inflammatory Disease” (Frontiers in Pharmacology, 2020)

Legend:
[1] = Plasma protein binding (equilibrium dialysis), rat; format: in vitro ADME; conditions: both sexes, Sprague Dawley, 1 and 10 μM, equilibrium dialysis 18 h, no gender difference, read-out: bound to plasma proteins
Experimental: Concentrated (10 mM) DMSO stock solutions of olinciguat were diluted to 1 and 10 μM in 2.5 ml of rat (male and female Sprague Dawley) and human plasma. Concentrated [^14C]-labeled olinciguat (1 μl,1 mCi/ml stock concentration) was spiked into each sample and mixed by vortexing. Triplicate 500 μl aliquots of plasma containing [^14C]-labeled olinciguat were transferred to a Rapid Equilibrium Dialysis system and dialyzed (molecular weight cut-off ~8000 Da) against 500 μl of phosphate-buffered saline (PBS) at room temperature for 18 h. Radioactivity of [^14C]-labeled olinciguat in PBS and plasma samples was measured using liquid scintillation counting.

[2] = Mass balance/excretion of [14C]-olinciguat in rats; format: in vivo, rat; conditions: male Sprague-Dawley rats, single oral dose 3 mg/kg; for equivalents excreted in the feces, percent of administered dose: 3 mg/kg
Experimental: [^14C]-olinciguat, uniformly labeled with [^14C] in the fluorobenzyl ring and having a specific activity of 110 mCi/mmol, was synthesized at American Radiolabeled Chemicals, Inc. (St. Louis, MO). The radiochemical purity was determined to be >99%. Four male Sprague-Dawley rats (approximately 8 weeks old) received a single p.o. dose of 3 mg/kg [^14C]-olinciguat (specific activity 26.6 µCi/mg) in PEG 400:water 60:40 v/v (dosing volume ≤5 ml/kg). Using a single metabolism cage (Nalgene) for each rat, urine and feces were collected for 7 days at 24-h intervals, and cages were rinsed daily. Food was available ad libitum throughout the study, except for the overnight fasting period (16–18 h) before and 4 h after olinciguat administration. Deionized water was available ad libitum. After 7 days, tissues were collected. Urine, feces, liver, kidneys, and cage washes were analyzed to determine material balance.

[3] = Dahl salt-sensitive rat model; format: in vivo; conditions: male, Dahl salt-sensitive (DSS), rat, plasma, oral; DSS rats, 10 mg/kg/day in chow, week 6, n=6; read-out: average total plasma concentration of olinciguat
Experimental: (§1) The Dataquest A.R.T.™ acquisition and analysis system (Data Sciences International [DSI], St. Paul, MN) was employed to monitor and analyze hemodynamic data from conscious, freely moving rats surgically implanted with a telemetry pressure transmitter (PA-C40). Telemetry transmitter implantation was performed on rats under sterile conditions. Rats were anesthetized with isoflurane and body temperature was maintained with a heating pad during surgery. A laparotomy was performed to expose the abdominal aorta. The catheter tip of the telemetry transmitter was inserted into the abdominal aorta and secured with a 5-0 silk suture (Ethicon, Inc., Somerville, NJ). The abdominal incision was closed with uninterrupted suture (4-0 silk, Ethicon, Inc., Somerville, NJ) and the telemetry transmitter was placed in the abdominal cavity and secured to the abdominal wall. Approximately 100 µl of 0.25% marcaine was applied directly to the closed abdominal wall, and the skin was then closed with suture (4-0 Vicryl® absorbable, Ethicon, Inc., Somerville, NJ). Buprenorphine (0.05 mg/kg/day, subcutaneous [s.c.]) was administered immediately after the surgery for postoperative pain relief. After recovery from anesthesia, rats were returned to their home cages, placed on DSI receivers, and allowed a 5- to 14-day recovery period. Arterial hemodynamics were measured continuously and recorded throughout the study. For acute studies, analysis was based on hourly averages, for chronic studies, analysis was based on daily or weekly averages.
(§2) Male DSS rats (n = 48, 230–300 g) were implanted with telemetry transmitters as described above. During the 2-week pretreatment period and the 6-week treatment period, rats were either fed a NS diet (0.3% NaCl, n=8) or a HS diet (8% NaCl). During the treatment period, one group of HS rats was continued on HS diet (HS, n=8) and a second group of HS rats was switched to a HS diet containing olinciguat targeting the dose equivalent of 10 mg/kg/day (OLI10, n=8). At the end of the 6-week treatment period, body weight was measured, urine was collected over a 24-h period using a metabolic cage for urinalysis, and blood samples were collected for plasma biomarker analyses. At the end of the study, rats were anesthetized, and whole bodies were perfused via the left ventricle with heparinized PBS (1 U/ml heparin) containing IBMX (1mM). Organs were collected and weighed. All organ weights were normalized to body weight. After weighing the heart, the right ventricular free wall was removed, and the left ventricular free wall plus left ventricular septum (LV+S) were weighed.
(§3) In the DSS model, daily MAP (24-h average) data were analyzed using two-way ANOVA, with time and treatment group as independent variables. For each day, groups were compared to the HS group with a Dunnett's post-hoc test. Body weight, LV+S, cardiac weight, lung weight, kidney weight, plasma NT-proBNP, and 24-h urine protein excretion (UPE) data were analyzed by one-way ANOVA, followed by Dunnett's multiple comparison to the HS group.

[4] = tested on: Dahl salt-sensitive (DSS) rats on high salt diet; assay: Dahl salt-sensitive rat model; format: in vivo; conditions: for MAP at the end of the treatment period: 6 weeks; for LV+S weight normalized to body weight: end of 6-week treatment
Experimental: as §1, §2, §3

[5] = Mouse TNFα-induced model of vascular inflammation; format: in vivo; conditions: male, C57BL/6, mouse, plasma, po; mice, 10 mg/kg p.o., at euthanasia; read-out: plasma concentration of olinciguat
Experimental: (§4) Male C57BL/6 mice (n=30, 22 g, 8 weeks) were studied. The TNFα/olinciguat group of mice (n=10) was administered 10 mg/kg olinciguat p.o., formulated in 0.1 ml 100% PEG, followed byintraperitoneal (i.p.) injection of 50 ng of mouse TNFα formulated in 0.5 ml pyrogen-free 0.9% NaCl solution one hour later. The TNFα/vehicle control group of mice (n=10) was treated with p.o. vehicle, followed by i.p. injection of 50 ng of mouse TNFα after one h. A naïve, non-treated control group of mice (n=10) was included in the study. […] Plasma levels of olinciguat were determined by LCMS. Plasma samples were diluted 1:300 for determination of sL-selectin, sP-selectin, sE-selectin, and sICAM-1 by ELISA.
(§5) In the vascular inflammation model, data were analyzed by one-way ANOVA, followed by Dunnett's multiple comparison to the TNFα-vehicle control.

[6] = tested on: C57BL/6 mice treated with TNFα; assay: Mouse TNFα-induced model of vascular inflammation; format: in vivo; conditions: 10 mg/kg, total plasma concentration x 1.7% free
Experimental: as §4, §5

[7] = design: method as in Mittleman et al., 2017; conditions: healthy human subjects, ref Mittleman et al., 2017, cited from earlier work

NC(=O)[C@](O)(CNc1nc(-c2cc(-c3ccon3)n(Cc3ccccc3F)n2)ncc1F)C(F)(F)F [olinciguat, (R)-3,3,3-trifluoro-2-(((5-fluoro-2-(1-(2-fluorobenzyl)-5-(isoxazol-3-yl)-1H-pyrazol-3-yl)pyrimidin-4-yl)amino)methyl)-2-hydroxypropanamide]
fraction unbound at 18 h [1]: 0.01 | administered dose radioactivity recovered in feces and urine within the first 48 h [2]: 95% | equivalents excreted in the urine, percent of administered dose ([2]; over 7 days): 5.7% | equivalents excreted in the feces, percent of administered dose ([2]; over 7 days): > 95% | equivalents excreted in the feces, percent of administered dose ([2]; over 7 days, listed as [^14C]-olinciguat): 95.3% | concentration at 6 weeks [3]: 25.4 ± 3.8 nM | Olinciguat concentration (free) ([4]; 10 mg/kg/day, total plasma concentration x 1.0% free): 0.22–0.29 nM^e | MAP at the end of the treatment period ([4]; HS diet, olinciguat 10 mg/kg/day in chow): 192 mmHg | MAP at the end of the treatment period ([4]; HS diet, olinciguat 10 mg/kg/day in chow, listed as OLI10): 192 ± 7 mmHg | MAP on day 16 (after treatment initiation) ([4]; HS diet, olinciguat 10 mg/kg/day in chow, 161 ± 7 mmHg on day 14 before treatment): 146 ± 7 mmHg | lung weight, fold higher than in NS ([4]; HS diet, olinciguat 10 mg/kg/day vs NS control): 1.2 fold | lung weight normalized to body weight ([4]; HS diet, olinciguat 10 mg/kg/day, HS 8.9 ± 1.7): ↓ lung weight | lung weight normalized to body weight ([4]; HS diet, olinciguat 10 mg/kg/day, HS 8.9 ± 1.7, listed as OLI10): 4.0 ± 0.1 g/kg BW | normalized kidney weight ([4]; HS diet, olinciguat 10 mg/kg/day, HS 10.9 ± 0.5, not significantly different): 10.2 ± 0.23 g/kg BW | 24-h urine protein excretion (UPE) ([4]; HS diet, olinciguat 10 mg/kg/day, HS 643 ± 60, not statistically significant): 599 ± 70 mg | average body weight at the end of the treatment period ([4]; HS diet, olinciguat 10 mg/kg/day, HS control 364 ± 19): 412 ± 11 g | cardiac weight vs HS ([4]; HS diet, olinciguat 10 mg/kg/day, data not shown): lower in OLI10 than HS | LV+S weight normalized to body weight ([4]; HS diet, olinciguat 10 mg/kg/day, HS 4.1 ± 0.2): ↓ cardiac hypertrophy | LV+S weight normalized to body weight ([4]; HS diet, olinciguat 10 mg/kg/day, HS 4.1 ± 0.2, listed as OLI10): 3.3 ± 0.1 g/kg BW | difference in MAP between olinciguat-treated and HS disease control at end of treatment period ([4]; HS diet, olinciguat 10 mg/kg/day, lower than HS, listed as OLI10): 15 mmHg | plasma NT-proBNP ([4]; HS diet, olinciguat 10 mg/kg/day, n=6, HS 2,833 ± 416): ↓ NT-proBNP | plasma NT-proBNP ([4]; HS diet, olinciguat 10 mg/kg/day, n=6, HS 2,833 ± 416, listed as OLI10): 1,235 ± 301 pg/ml | NT-proBNP, percent lower than untreated controls ([4]; olinciguat 10 mg/kg/day): 56% | concentration at 5 h [5]: 544 ± 61 nM | Olinciguat concentration (free) [6]: 8.2–10.2 nM^f | terminal-phase half-life ([7]; repeat dosing with oral tablets): ~ 30 h | renal clearance, percent of apparent total body clearance [CL/F] [7]: ≤ 0.3%
